The species named for one experiment is Homo sapiens. Nature of the experiment: Inhibition of human P70S6K catalytic domain expressed in baculovirus assessed as substrate phosphorylation using fluorescence-labelled peptides as substrate at 420 uM after 90 mins by microfluidic peptide phosphorylation assay.
Experiment [1] deals with Mitogen-activated protein kinase 14 (Homo sapiens) (UniProt Q16539). The experiment in a line: Inhibition of human truncated p38 alpha expressed in Escherichia coli cell assessed as substrate phosphorylation using fluorescence-labelled peptides as substrate at 0.1 uM after 90 mins by microfluidic peptide phosphorylation assay.
For experiment [2], the target named is Tyrosine-protein kinase Fer (Homo sapiens) (UniProt P16591). The experiment in a line: Inhibition of human FER catalytic domain expressed in baculovirus assessed as substrate phosphorylation using fluorescence-labelled peptides as substrate at 0.06 uM after 90 mins by microfluidic peptide phosphorylation assay.
Experiment [3] concerns the target Serine/threonine-protein kinase MARK1 (Homo sapiens) (UniProt Q9P0L2). Nature of the experiment: Inhibition of human full length MARK1 expressed in baculovirus assessed as substrate phosphorylation using fluorescence-labelled peptides as substrate at 0.06 uM after 90 mins by microfluidic peptide phosphorylation assay.
The target in experiment [4] is Fibroblast growth factor receptor 4 (Homo sapiens) (UniProt P22455). Nature of the experiment: Inhibition of human FGFR4 catalytic domain expressed in baculovirus assessed as substrate phosphorylation using fluorescence-labelled peptides as substrate at 0.2 uM after 90 mins by microfluidic peptide phosphorylation assay.
Experiment [5] concerns the target Mitogen-activated protein kinase 1 (Homo sapiens) (UniProt P28482). The experiment in a line: Inhibition of human full length ERK2 expressed in Escherichia coli cell assessed as substrate phosphorylation using fluorescence-labelled peptides as substrate at 9 uM after 90 mins by microfluidic peptide phosphorylation assay.
Experiment [6] concerns the target T1, Protein kinase C epsilon type (Homo sapiens) (UniProt Q02156).
T1 sequence (whole entry): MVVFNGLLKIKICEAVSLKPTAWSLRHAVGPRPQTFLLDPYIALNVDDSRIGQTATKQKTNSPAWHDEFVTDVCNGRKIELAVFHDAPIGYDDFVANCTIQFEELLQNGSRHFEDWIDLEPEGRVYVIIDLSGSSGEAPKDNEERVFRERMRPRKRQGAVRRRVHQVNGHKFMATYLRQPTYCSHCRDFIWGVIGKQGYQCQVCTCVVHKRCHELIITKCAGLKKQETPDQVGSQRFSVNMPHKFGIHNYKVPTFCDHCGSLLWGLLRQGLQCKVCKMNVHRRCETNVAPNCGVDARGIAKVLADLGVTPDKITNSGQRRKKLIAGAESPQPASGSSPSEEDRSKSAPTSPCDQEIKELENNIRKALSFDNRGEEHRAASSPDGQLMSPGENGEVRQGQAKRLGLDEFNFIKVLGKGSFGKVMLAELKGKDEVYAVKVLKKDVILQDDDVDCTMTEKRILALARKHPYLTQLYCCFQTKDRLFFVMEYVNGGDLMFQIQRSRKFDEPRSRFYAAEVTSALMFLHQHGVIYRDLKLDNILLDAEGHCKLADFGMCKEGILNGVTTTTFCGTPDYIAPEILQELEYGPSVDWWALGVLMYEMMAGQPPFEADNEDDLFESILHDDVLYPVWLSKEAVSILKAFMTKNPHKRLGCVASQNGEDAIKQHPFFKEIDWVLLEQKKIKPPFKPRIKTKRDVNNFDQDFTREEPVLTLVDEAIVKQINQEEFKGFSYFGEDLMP
Nature of the experiment: Inhibition of human truncated PKC epsilon expressed in baculovirus assessed as substrate phosphorylation using fluorescence-labelled peptides as substrate at 9 uM after 90 mins by microfluidic peptide phosphorylation assay.

Experiment [7] concerns the target RAC-alpha serine/threonine-protein kinase (Homo sapiens) (UniProt P31749). The experiment in a line: Inhibition of human AKT1 catalytic domain expressed in baculovirus assessed as substrate phosphorylation using fluorescence-labelled peptides as substrate at 9 uM after 90 mins by microfluidic peptide phosphorylation assay.
Experiment [8] addresses Tyrosine-protein kinase BTK (Homo sapiens) (UniProt Q06187). The experiment in a line: Inhibition of human full length BTK expressed in baculovirus assessed as substrate phosphorylation using fluorescence-labelled peptides as substrate at 9 uM after 90 mins by microfluidic peptide phosphorylation assay.
For experiment [9], the target named is Calcium/calmodulin-dependent protein kinase type II subunit beta (Homo sapiens) (UniProt Q13554). The experiment in a line: Inhibition of human CAMK2 beta catalytic domain expressed in baculovirus assessed as substrate phosphorylation using fluorescence-labelled peptides as substrate at 70 uM after 90 mins by microfluidic peptide phosphorylation assay.
Experiment [10] concerns the target Mitogen-activated protein kinase 14 (Homo sapiens) (UniProt Q16539). Nature of the experiment: Inhibition of human truncated p38 alpha expressed in Escherichia coli cell assessed as substrate phosphorylation using fluorescence-labelled peptides as substrate at 1000 uM after 90 mins by microfluidic peptide phosphorylation assay.
For experiment [11], the target named is T2, Serine/threonine-protein kinase D3 (Homo sapiens) (UniProt O94806).
T2 sequence (whole entry): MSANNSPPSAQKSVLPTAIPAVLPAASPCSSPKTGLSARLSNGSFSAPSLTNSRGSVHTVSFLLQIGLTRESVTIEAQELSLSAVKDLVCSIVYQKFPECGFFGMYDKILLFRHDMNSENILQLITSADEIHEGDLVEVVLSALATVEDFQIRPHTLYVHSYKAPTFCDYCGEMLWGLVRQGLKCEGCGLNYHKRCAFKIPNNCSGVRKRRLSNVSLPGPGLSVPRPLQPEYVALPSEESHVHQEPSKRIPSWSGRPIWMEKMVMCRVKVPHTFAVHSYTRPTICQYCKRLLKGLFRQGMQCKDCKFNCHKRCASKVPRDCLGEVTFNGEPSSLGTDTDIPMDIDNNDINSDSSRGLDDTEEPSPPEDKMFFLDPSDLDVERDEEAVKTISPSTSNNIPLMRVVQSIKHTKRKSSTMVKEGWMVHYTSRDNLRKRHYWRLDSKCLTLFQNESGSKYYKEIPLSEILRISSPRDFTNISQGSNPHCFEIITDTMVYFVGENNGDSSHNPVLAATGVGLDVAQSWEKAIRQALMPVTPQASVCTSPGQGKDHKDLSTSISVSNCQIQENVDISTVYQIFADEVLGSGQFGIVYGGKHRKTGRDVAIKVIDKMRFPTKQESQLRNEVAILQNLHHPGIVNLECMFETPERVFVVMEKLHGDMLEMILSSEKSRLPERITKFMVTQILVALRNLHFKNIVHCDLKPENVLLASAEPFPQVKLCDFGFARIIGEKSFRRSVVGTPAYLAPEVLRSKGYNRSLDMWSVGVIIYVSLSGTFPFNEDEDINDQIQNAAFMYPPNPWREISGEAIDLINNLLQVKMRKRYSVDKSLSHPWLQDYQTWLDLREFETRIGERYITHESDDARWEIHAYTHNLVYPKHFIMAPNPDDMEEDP
The experiment in a line: Inhibition of human full length PKD3 expressed in baculovirus assessed as substrate phosphorylation using fluorescence-labelled peptides as substrate at 1000 uM after 90 mins by microfluidic peptide phosphorylation assay.

Experiment [12] deals with Protein kinase C beta type (Homo sapiens) (UniProt P05771). Nature of the experiment: Inhibition of human truncated PKC beta1 expressed in baculovirus assessed as substrate phosphorylation using fluorescence-labelled peptides as substrate at 1000 uM after 90 mins by microfluidic peptide phosphorylation assay.
Sequence of Protein kinase C beta type (Homo sapiens) (P05771 2-671 limits assumed): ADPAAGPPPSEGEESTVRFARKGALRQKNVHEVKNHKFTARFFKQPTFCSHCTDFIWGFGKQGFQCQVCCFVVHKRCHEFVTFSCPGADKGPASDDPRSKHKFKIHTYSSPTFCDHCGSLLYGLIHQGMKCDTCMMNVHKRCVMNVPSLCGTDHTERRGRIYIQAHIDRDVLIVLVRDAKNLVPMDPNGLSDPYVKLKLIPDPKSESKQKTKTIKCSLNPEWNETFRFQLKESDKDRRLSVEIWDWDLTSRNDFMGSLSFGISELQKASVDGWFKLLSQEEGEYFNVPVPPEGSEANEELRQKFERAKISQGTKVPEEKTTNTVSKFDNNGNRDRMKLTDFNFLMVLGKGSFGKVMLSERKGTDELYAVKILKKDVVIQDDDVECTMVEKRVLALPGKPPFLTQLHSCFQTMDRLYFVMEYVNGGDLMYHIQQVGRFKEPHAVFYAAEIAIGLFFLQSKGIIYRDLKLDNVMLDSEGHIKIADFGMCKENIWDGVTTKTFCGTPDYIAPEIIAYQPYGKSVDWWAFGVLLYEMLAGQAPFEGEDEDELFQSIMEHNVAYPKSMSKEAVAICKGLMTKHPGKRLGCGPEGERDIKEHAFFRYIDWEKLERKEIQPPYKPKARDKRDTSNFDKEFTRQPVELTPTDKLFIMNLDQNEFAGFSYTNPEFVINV

Sequence of Mitogen-activated protein kinase 14 (Homo sapiens) (Q16539 whole entry, the tested form may be a part): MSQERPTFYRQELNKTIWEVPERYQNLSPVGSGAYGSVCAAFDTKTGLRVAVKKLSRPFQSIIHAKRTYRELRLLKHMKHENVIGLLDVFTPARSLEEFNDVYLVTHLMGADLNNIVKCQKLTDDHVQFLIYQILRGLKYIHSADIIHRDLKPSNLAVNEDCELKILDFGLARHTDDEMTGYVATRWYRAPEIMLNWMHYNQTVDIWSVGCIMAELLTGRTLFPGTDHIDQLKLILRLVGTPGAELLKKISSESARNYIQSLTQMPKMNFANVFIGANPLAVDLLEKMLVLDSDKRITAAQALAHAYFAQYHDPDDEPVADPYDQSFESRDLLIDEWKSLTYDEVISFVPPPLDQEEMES
Sequence of Mitogen-activated protein kinase 1 (Homo sapiens) (P28482 whole entry): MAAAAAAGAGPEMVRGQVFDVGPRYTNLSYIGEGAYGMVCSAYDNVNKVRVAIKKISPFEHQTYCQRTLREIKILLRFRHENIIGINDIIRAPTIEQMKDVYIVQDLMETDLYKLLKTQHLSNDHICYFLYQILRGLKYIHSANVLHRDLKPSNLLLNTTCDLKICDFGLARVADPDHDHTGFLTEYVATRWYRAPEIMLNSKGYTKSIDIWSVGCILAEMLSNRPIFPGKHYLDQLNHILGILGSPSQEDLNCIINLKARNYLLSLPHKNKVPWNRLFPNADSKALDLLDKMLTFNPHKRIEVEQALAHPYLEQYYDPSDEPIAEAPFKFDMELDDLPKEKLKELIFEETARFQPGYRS
Sequence of Calcium/calmodulin-dependent protein kinase type II subunit beta (Homo sapiens) (Q13554 whole entry, the tested form may be a part): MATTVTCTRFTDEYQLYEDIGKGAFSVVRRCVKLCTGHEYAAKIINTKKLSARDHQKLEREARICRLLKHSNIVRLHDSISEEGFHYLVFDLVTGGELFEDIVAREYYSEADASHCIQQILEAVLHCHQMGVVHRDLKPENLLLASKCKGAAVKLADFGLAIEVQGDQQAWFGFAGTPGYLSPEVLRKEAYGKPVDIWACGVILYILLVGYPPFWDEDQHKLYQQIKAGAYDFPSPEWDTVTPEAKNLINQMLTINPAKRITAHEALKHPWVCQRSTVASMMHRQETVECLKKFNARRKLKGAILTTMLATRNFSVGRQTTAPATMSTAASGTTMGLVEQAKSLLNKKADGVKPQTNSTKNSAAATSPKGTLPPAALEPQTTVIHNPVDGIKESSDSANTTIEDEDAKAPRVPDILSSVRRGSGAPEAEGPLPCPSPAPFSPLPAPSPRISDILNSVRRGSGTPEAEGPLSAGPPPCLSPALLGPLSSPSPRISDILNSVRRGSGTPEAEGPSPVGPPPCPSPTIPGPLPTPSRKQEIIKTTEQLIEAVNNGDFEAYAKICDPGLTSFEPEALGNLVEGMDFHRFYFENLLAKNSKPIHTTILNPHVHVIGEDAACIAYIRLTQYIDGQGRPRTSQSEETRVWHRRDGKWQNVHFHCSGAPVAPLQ
Sequence of RAC-alpha serine/threonine-protein kinase (Homo sapiens) (P31749 whole entry, the tested form may be a part): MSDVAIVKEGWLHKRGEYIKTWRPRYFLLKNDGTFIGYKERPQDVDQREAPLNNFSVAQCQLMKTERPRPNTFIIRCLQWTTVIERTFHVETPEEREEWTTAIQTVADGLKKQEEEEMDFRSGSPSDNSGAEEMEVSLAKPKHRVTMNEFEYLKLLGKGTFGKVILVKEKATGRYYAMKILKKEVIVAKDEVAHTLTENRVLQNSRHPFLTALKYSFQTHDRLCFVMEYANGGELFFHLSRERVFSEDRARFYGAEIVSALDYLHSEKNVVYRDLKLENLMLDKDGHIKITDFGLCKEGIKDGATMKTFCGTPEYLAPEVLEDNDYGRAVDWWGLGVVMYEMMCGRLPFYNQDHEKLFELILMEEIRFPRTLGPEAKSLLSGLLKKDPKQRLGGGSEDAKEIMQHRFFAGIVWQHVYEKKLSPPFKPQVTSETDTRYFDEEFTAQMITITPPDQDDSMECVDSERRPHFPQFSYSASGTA
Sequence of Tyrosine-protein kinase Fer (Homo sapiens) (P16591 whole entry, looked up, the tested form may be a part): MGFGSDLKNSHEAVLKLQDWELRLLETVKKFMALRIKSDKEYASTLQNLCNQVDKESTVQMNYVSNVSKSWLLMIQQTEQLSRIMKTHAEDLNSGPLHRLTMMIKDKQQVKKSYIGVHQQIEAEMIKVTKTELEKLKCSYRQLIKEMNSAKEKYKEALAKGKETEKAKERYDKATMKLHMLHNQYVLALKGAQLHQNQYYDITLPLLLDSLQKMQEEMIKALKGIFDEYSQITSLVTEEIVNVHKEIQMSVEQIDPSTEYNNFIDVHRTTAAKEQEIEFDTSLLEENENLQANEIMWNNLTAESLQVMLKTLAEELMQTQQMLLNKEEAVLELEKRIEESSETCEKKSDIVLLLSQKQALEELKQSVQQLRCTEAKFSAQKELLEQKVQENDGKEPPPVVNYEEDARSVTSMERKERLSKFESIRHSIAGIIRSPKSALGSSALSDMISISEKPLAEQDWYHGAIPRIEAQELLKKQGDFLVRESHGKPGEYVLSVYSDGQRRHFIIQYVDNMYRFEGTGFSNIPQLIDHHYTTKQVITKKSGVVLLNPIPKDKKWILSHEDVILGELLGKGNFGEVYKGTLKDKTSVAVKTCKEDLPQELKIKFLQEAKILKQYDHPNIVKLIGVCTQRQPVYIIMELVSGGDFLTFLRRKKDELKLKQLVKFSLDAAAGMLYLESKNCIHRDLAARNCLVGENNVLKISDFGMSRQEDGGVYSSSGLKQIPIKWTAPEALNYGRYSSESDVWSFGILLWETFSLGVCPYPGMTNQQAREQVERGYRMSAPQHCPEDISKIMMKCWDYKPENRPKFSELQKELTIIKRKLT
Sequence of Serine/threonine-protein kinase MARK1 (Homo sapiens) (Q9P0L2 whole entry, looked up, the tested form may be a part): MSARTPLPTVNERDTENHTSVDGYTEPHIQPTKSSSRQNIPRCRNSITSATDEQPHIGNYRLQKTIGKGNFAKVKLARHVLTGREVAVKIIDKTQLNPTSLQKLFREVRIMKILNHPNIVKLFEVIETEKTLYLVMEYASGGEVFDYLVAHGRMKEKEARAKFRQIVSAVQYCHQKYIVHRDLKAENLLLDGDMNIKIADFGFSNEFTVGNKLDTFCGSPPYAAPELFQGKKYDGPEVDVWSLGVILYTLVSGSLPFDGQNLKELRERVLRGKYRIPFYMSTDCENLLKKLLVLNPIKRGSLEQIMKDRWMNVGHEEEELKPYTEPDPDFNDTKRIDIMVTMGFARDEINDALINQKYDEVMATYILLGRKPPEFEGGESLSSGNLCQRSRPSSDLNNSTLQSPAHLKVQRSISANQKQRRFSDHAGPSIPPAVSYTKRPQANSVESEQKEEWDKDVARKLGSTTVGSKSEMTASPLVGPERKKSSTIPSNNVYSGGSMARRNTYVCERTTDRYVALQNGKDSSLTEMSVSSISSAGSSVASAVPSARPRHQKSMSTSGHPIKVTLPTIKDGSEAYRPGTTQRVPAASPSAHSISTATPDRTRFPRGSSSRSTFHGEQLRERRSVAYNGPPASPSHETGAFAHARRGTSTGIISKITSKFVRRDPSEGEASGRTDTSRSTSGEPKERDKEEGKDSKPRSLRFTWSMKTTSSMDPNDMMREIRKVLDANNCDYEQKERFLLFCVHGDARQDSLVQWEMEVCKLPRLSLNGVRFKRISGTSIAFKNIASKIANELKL
Sequence of Fibroblast growth factor receptor 4 (Homo sapiens) (P22455 22-802 limits assumed): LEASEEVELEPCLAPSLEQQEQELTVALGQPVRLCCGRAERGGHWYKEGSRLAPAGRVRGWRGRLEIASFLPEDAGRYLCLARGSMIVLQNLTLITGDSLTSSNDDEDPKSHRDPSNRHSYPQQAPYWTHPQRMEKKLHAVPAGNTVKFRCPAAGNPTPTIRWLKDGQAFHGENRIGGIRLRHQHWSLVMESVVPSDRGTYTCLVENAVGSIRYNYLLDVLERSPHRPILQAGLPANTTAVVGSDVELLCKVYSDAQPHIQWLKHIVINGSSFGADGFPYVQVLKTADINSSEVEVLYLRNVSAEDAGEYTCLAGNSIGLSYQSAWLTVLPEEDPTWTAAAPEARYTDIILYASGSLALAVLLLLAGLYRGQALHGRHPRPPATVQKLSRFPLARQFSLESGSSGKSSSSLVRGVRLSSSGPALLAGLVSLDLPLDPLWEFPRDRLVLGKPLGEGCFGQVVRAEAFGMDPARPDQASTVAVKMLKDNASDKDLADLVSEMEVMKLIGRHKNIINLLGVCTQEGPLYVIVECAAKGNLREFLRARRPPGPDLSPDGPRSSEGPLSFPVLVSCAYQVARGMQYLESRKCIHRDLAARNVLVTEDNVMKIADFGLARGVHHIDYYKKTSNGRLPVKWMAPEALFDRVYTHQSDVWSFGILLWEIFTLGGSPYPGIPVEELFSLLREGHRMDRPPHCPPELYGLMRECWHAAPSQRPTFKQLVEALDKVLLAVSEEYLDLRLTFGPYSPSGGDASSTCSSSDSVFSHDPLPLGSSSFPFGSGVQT

What is called inhibition is the percentage by which the read-out fell short of the control. Consider `c1nc(N2CCOCC2)c2nc[nH]c2n1`, for which, in the experiment filed under Homo sapiens, the inhibition was 84.5%.
Take `C[C@H](CN(C)C)Oc1nc(Nc2cc3cccc(Cl)c3cn2)cnc1C#N`: in experiment [1], the inhibition amounted to 1%.
In the case of `NC1(Cc2ccc(Cl)cc2)CCN(c2ncnc3[nH]ccc23)CC1`, the figures for the inhibition in [2] and in experiment [3] were 4% and 4.5%, respectively.
Consider `Clc1ccc(C2(c3ccc(-c4ncnc5[nH]cnc45)cc3)CCNCC2)cc1`, for which the inhibition in experiment [4] was 1.5%.
`NCC1CN(c2ncnc3[nH]c4cnccc4c23)CCO1` (stereo not drawn): the inhibition in experiment [5] was 1.5%; in [6], 14.5%; in experiment [7], 52%; in [8] it was 11%.
Consider `CNCc1ccc(-c2ncnc3[nH]cnc23)cc1`, for which, in [9], the inhibition was 6.5%.
Consider `c1cnc2[nH]ccc2c1`, for which the inhibition stood at 0% in [10], 62.5% in experiment [11] and 46% in [12].

Source of the values: ChEMBL document CHEMBL3132769, “Fragment growing to retain or alter the selectivity of anchored kinase hinge-binding fragments” (Medchemcomm, 2014).
